We go through 33 molecules from patent publication US9981942B2, “Piperidine derivatives having multimodal activity against pain” (LABORATORIOS DEL DR. ESTEVE S.A., priority 2013, dated 2018).

A value given as a limit tells only on which side of the number the result lay.

The test deals with σ1 receptor and the μ-opiod receptor. The experiment in a line: μ and σ1 dual binding: combined class from the Ki of both radioligand assays. Set-up: species or system human; key to μ and σ1 dual binding: +: Both Ki-μ and Ki-σ1>=500 nM; ++: One Ki<500 nM while the other Ki is >=500 nM; +++: Both Ki-μ and Ki-σ1<500 nM; ++++: Both Ki-μ and Ki-σ1<100 nM. Conditions: transfected HEK-293 membranes (σ1), transfected CHO-K1 cell membranes (μ); for μ and σ1 dual binding: combined class for Ki-μ and Ki-σ1. A digest of the protocol: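 Classes combine both Ki values, split at 500 nM and 100 nM. Human μ-opioid binding used 1 nM [3H]-DAMGO on CHO-K1 membranes (27 °C, 60 min, pH 7.4, naloxone 10 μM for NSB); human σ1 used 5 nM [3H](+)-pentazocine on HEK-293 membranes (37 °C, 120 min, pH 8, haloperidol 10 μM for NSB).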

On to `CCC(=O)Nc1cccc(C2CCN(Cc3cn(-c4ccccc4)nn3)CC2)n1` [Example 190, N-(6-(1-((1-phenyl-1H-1,2,3-triazol-4-yl)methyl)piperidin-4-yl)pyridin-2-yl)propionamide], for which the Ki range for both μ and σ1 (dual-binding class) is less than 0.5 µM. In the case of `CS(=O)(=O)Nc1cccc(C2CCN(Cc3cn(-c4ccccc4)nn3)CC2)n1` [Example 191, N-(6-(1-((1-phenyl-1H-1,2,3-triazol-4-yl)methyl)piperidin-4-yl)pyridin-2-yl)methanesulfonamide], the “μ and σ1 dual binding” value is “++”. In the case of `CCC(=O)Nc1ccnc(C2CCN(Cc3cn(-c4ccccc4)nn3)CC2)c1` [Example 192, N-(2-(1-((1-phenyl-1H-1,2,3-triazol-4-yl)methyl)piperidin-4-yl)pyridin-4-yl)propionamide], the “μ and σ1 dual binding” value is reported as “++”. For the molecule `CS(=O)(=O)Nc1ccnc(C2CCN(Cc3cn(-c4ccccc4)nn3)CC2)c1` [Example 193, N-(2-(1-((1-phenyl-1H-1,2,3-triazol-4-yl)methyl)piperidin-4-yl)pyridin-4-yl)methanesulfonamide], the Ki range for both μ and σ1 (dual-binding class) was no less than 0.5 µM. Take `CS(=O)(=O)Nc1cncc(C2CCN(Cc3cn(-c4ccccc4)nn3)CC2)c1` [Example 194, N-(5-(1-((1-phenyl-1H-1,2,3-triazol-4-yl)methyl)piperidin-4-yl)pyridin-3-yl)methanesulfonamide]: the Ki range for both μ and σ1 (dual-binding class) is no less than 0.5 µM.

Consider `CCC(=O)Nc1cncc(C2CCN(Cc3cn(-c4ccccc4)nn3)CC2)c1` [Example 195, N-(5-(1-((1-phenyl-1H-1,2,3-triazol-4-yl)methyl)piperidin-4-yl)pyridin-3-yl)propionamide], for which the Ki range for both μ and σ1 (dual-binding class) was no less than 0.5 µM. `CCC(=O)Nc1cc(C2CCN(Cc3cn(-c4ccccc4)nn3)CC2)ccn1` [Example 196, N-(4-(1-((1-phenyl-1H-1,2,3-triazol-4-yl)methyl)piperidin-4-yl)pyridin-2-yl)propionamide]: the Ki range for both μ and σ1 (dual-binding class) was no less than 0.5 µM.

In the case of `CS(=O)(=O)Nc1cc(C2CCN(Cc3cn(-c4ccccc4)nn3)CC2)ccn1` [Example 197, N-(4-(1-((1-phenyl-1H-1,2,3-triazol-4-yl)methyl)piperidin-4-yl)pyridin-2-yl)methanesulfonamide], the Ki range for both μ and σ1 (dual-binding class) is no less than 0.5 µM. Take `Oc1cccc(C2CCN(Cc3cn(-c4ccccc4)nn3)CC2)n1` [Example 198, 6-(1-((1-phenyl-1H-1,2,3-triazol-4-yl)methyl)piperidin-4-yl)pyridin-2-ol]: the Ki range for both μ and σ1 (dual-binding class) is no less than 0.5 µM. In the case of `CCC(=O)Nc1cccc(C2CCN(Cc3cn(Cc4ccccc4)nn3)CC2)n1` [Example 199, N-(6-(1-((1-benzyl-1H-1,2,3-triazol-4-yl)methyl)piperidin-4-yl)pyridin-2-yl)propionamide], the “μ and σ1 dual binding” value is on record as “++”. Take `CS(=O)(=O)Nc1cccc(C2CCN(Cc3cc(-c4ccccc4)no3)CC2)n1` [Example 200, N-(6-(1-((3-phenylisoxazol-5-yl)methyl)piperidin-4-yl)pyridin-2-yl)methanesulfonamide]: the Ki range for both μ and σ1 (dual-binding class) was less than 0.5 µM.

Regarding `CCC(=O)Nc1cccc(C2CCN(Cc3cc(-c4ccccc4)no3)CC2)n1` [Example 201, N-(6-(1-((3-phenylisoxazol-5-yl)methyl)piperidin-4-yl)pyridin-2-yl)propionamide], the Ki range for both μ and σ1 (dual-binding class) is less than 0.5 µM. On to `CCC(=O)Nc1cccc(C2CCN(Cc3cnn(-c4ccccc4)c3)CC2)n1` [Example 202, N-(6-(1-((1-phenyl-1H-pyrazol-4-yl)methyl)piperidin-4-yl)pyridin-2-yl)propionamide], for which the Ki range for both μ and σ1 (dual-binding class) is less than 0.1 µM.

On to `CS(=O)(=O)Nc1cccc(C2CCN(Cc3cnn(-c4ccccc4)c3)CC2)n1` [Example 203, N-(6-(1-((1-phenyl-1H-pyrazol-4-yl)methyl)piperidin-4-yl)pyridin-2-yl)methanesulfonamide], for which the Ki range for both μ and σ1 (dual-binding class) is less than 0.5 µM. Consider `CCC(=O)Nc1cccc(C2CCN(Cc3cn([C@@H]4c5ccccc5C[C@H]4O)nn3)CC2)n1` [Example 204, N-(6-(1-((1-((1R,2R)-2-hydroxy-2,3-dihydro-1H-inden-1-yl)-1H-1,2,3-triazol-4-yl)methyl)piperidin-4-yl)pyridin-2-yl)propionamide], for which the “μ and σ1 dual binding” value is “++”. `Oc1ncccc1C1CCN(Cc2cn(-c3ccccc3)nn2)CC1` [Example 205, 3-(1-((1-phenyl-1H-1,2,3-triazol-4-yl)methyl)piperidin-4-yl)pyridin-2-ol]: the “μ and σ1 dual binding” value is listed as “++”.

With `CC(C)S(=O)(=O)Nc1cccc(C2CCN(Cc3cn(Cc4ccccn4)nn3)CC2)n1` [Example 206, N-(6-(1-((1-(pyridin-2-ylmethyl)-1H-1,2,3-triazol-4-yl)methyl)piperidin-4-yl)pyridin-2-yl)propane-2-sulfonamide], the Ki range for both μ and σ1 (dual-binding class) was less than 0.5 µM. In the case of `CC(C)S(=O)(=O)Nc1cccc(C2CCN(Cc3cn(-c4ccccc4)nn3)CC2)n1` [Example 207, N-(6-(1-((1-phenyl-1H-1,2,3-triazol-4-yl)methyl)piperidin-4-yl)pyridin-2-yl)propane-2-sulfonamide], the Ki range for both μ and σ1 (dual-binding class) was less than 0.5 µM. In the case of `CC(C)S(=O)(=O)Nc1cccc(C2CCN(Cc3cn(-c4ccccc4F)nn3)CC2)n1` [Example 208, N-(6-(1-((1-(2-fluorophenyl)-1H-1,2,3-triazol-4-yl)methyl)piperidin-4-yl)pyridin-2-yl)propane-2-sulfonamide], the Ki range for both μ and σ1 (dual-binding class) is less than 0.5 µM. Consider `CC(C)S(=O)(=O)Nc1cccc(C2CCN(Cc3cn(Cc4ncccc4F)nn3)CC2)n1` [Example 209, N-(6-(1-((1-((3-fluoropyridin-2-yl)methyl)-1H-1,2,3-triazol-4-yl)methyl)piperidin-4-yl)pyridin-2-yl)propane-2-sulfonamide], for which the “μ and σ1 dual binding” value is on record as “++”.

Turning to `CC(C)S(=O)(=O)Nc1cccc(C2CCN(Cc3cn(Cc4ccc(F)cn4)nn3)CC2)n1` [Example 210, N-(6-(1-((1-((5-fluoropyridin-2-yl)methyl)-1H-1,2,3-triazol-4-yl)methyl)piperidin-4-yl)pyridin-2-yl)propane-2-sulfonamide], the “μ and σ1 dual binding” value is listed as “++”. The same measure, in the same setting: for `CCC(=O)Nc1cccc(C2CCN(Cc3cn(-c4ccccc4F)nn3)CC2)n1` [Example 211, N-(6-(1-((1-(2-fluorophenyl)-1H-1,2,3-triazol-4-yl)methyl)piperidin-4-yl)pyridin-2-yl)propionamide] the value was “++”; for `CC(C)S(=O)(=O)Nc1cccc(C2CCN(Cc3cn(Cc4ncccc4Cl)nn3)CC2)n1` [Example 212, N-(6-(1-((1-((3-chloropyridin-2-yl)methyl)-1H-1,2,3-triazol-4-yl)methyl)piperidin-4-yl)pyridin-2-yl)propane-2-sulfonamide], “++”; for `CC(C)S(=O)(=O)Nc1cccc(C2CCN(Cc3cn(Cc4ccc(Cl)cn4)nn3)CC2)n1` [Example 213, N-(6-(1-((1-((5-chloropyridin-2-yl)methyl)-1H-1,2,3-triazol-4-yl)methyl)piperidin-4-yl)pyridin-2-yl)propane-2-sulfonamide], “++”. As for `Oc1cccc(C2CCN(Cc3cn(Cc4ccc(F)cn4)cn3)CC2)c1` [Example 215, 3-(1-((1-((5-fluoropyridin-2-yl)methyl)-1H-imidazol-4-yl)methyl)piperidin-4-yl)phenol], the Ki range for both μ and σ1 (dual-binding class) was less than 0.5 µM. `Oc1cccc(C2CCN(Cc3cn(-c4ncccc4O)nn3)CC2)c1` [Example 216, 2-(4-((4-(3-hydroxyphenyl)piperidin-1-yl)methyl)-1H-1,2,3-triazol-1-yl)pyridin-3-ol]: the “μ and σ1 dual binding” value is “++”. Turning to `COc1ccc(-n2cc(CN3CCC(c4cccc(O)c4)CC3)nn2)nc1` [Example 217, 3-(1-((1-(5-methoxypyridin-2-yl)-1H-1,2,3-triazol-4-yl)methyl)piperidin-4-yl)phenol], the Ki range for both μ and σ1 (dual-binding class) was less than 0.5 µM. Same read-out and setting: for `Oc1cccc(C2CCN(Cc3cn(-c4ncccc4C(F)(F)F)nn3)CC2)c1` [Example 218, 3-(1-((1-(3-(trifluoromethyl)pyridin-2-yl)-1H-1,2,3-triazol-4-yl)methyl)piperidin-4-yl)phenol] the value was less than 0.5 µM. Regarding `COc1cccnc1-n1cc(CN2CCC(c3cccc(O)c3)CC2)nn1` [Example 219, 3-(1-((1-(3-methoxypyridin-2-yl)-1H-1,2,3-triazol-4-yl)methyl)piperidin-4-yl)phenol], the “μ and σ1 dual binding” value is given as “++”. Same read-out and setting: for `Oc1ccc(-n2cc(CN3CCC(c4cccc(O)c4)CC3)nn2)nc1` [Example 220, 6-(4-((4-(3-hydroxyphenyl)piperidin-1-yl)methyl)-1H-1,2,3-triazol-1-yl)pyridin-3-ol] the value was “++”. Take `Oc1ccc(C2CCN(Cc3cn(-c4ccccc4)nn3)CC2)cc1` [Example 221, 4-(1-((1-phenyl-1H-1,2,3-triazol-4-yl)methyl)piperidin-4-yl)phenol]: the Ki range for both μ and σ1 (dual-binding class) was less than 0.5 µM. Turning to `Oc1ccccc1C1CCN(Cc2cn(-c3ccccc3)nn2)CC1` [Example 222, 2-(1-((1-phenyl-1H-1,2,3-triazol-4-yl)methyl)piperidin-4-yl)phenol], the Ki range for both μ and σ1 (dual-binding class) is less than 0.5 µM. `Oc1cccc(C2CCN(Cc3cn(-c4cc(F)ccc4F)nn3)CC2)c1` [Example 223, 3-(1-((1-(2,5-difluorophenyl)-1H-1,2,3-triazol-4-yl)methyl)piperidin-4-yl)phenol]: the Ki range for both μ and σ1 (dual-binding class) was less than 0.1 µM.
